Data published in patent US20190185479A1, “BICYCLIC NITROGENATED HETEROCYCLIC COMPOUND” (MITSUBISHI TANABE PHARMA CORPORATION, priority 2016, published 2019).

Legend:
Assay type in all cases: biochemical
[1] = molecular target: T1, hPDE4D (Homo sapiens, UniProt Q08499); assay: PDE4 inhibition assay (IC50), Experimental Example 3; details: for IC50: hPDE4D, read-out: PDE inhibition assay IC50, PDE4; for inhibition at 1 µM: at 1 μmol/L
T1 construct: purchased SB Drug Discovery
Experimental: (§1) PDE7 inhibitory assay was carried out by reacting the mixture of a compound, hPDE7B, and cAMP, and measuring the residual cAMP by a detection method using LANCE (registered trademark) Ultra cAMP Detection Kit (ParkinElmer). The compound was dissolved in DMSO, and diluted so that the concentration would become 50 times of the final concentration. The hPDE7B and cAMP were diluted with an assay buffer (50 mmol/L Tris-HCl, 1 mmol/L MgCl2, 0.1% BSA, 0.5 mmol/L DTT, pH7.5) so that the hPDE7B would have an appropriate enzyme activity and the concentration of cAMP would become 6 nmol/L. To a 96 well plate were added the compound (2 μL) (DMSO final concentration: 2%), hPDE7B (48 μL), and cAMP (50 μL) (concentration at the reaction: 3 nmol/L), and the resulting mixture was reacted at room temperature for 60 minutes. The reaction solution (20 μL) was subjected to a TR-FRET method according to the protocol specified by the kit to measure the concentration of the residual cAMP. In the assay, to a tracer solution specified by the kit was added 0.5 mmol/L of 3-isobutyl-1-methylxanthine (IBMX, nonselective PDE inhibitor) in order to stop the PDE enzyme reaction after the completion of reaction until the measurement.
(§2) The prediction of PDE7 selectivity was evaluated by comparing each IC50 value of a compound against PDE4, 8, and 10 with the IC50 value of said compound against PDE7B.
(§3) hPDE4D, hPDE8B, and hPDE10A were prepared by the same method as [Method for preparing samples 2].
(§4) PDE4, 8, and 10 inhibitory assays were carried out by the same method as [Assay procedure 1].
(§5) The reaction without a compound wad defined as “0% inhibition”, the reaction without each PDE was defined as “100% inhibition”, and the calculation of IC50 value was carried out by the same method as <Method for data calculation 1>.

[2] = molecular target: hPDE10A (Homo sapiens, UniProt Q9Y233); assay: PDE10 inhibition assay (IC50), Experimental Example 3; details: for IC50: hPDE10A, read-out: PDE inhibition assay IC50, PDE10; for inhibition at 10 µM: at 10 μmol/L
Experimental: as §1, §2, §3, §4, §5

[3] = molecular target: T2, Human PDE7B (hPDE7B) (Homo sapiens, UniProt Q9NP56); assay: Measurement of PDE7 inhibitory activity (Experimental Example 1; residual cAMP, LANCE Ultra cAMP TR-FRET); details: cAMP 3 nmol/L, room temperature 60 minutes
T2 construct: made in house; host or cells: COS-7 cells
Procedure, shortened: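 hPDE7B from transfected COS-7 cells reacted with 3 nmol/L cAMP (final) and compound (2% DMSO) in 50 mmol/L Tris-HCl pH 7.5, 1 mmol/L MgCl2, 0.1% BSA, 0.5 mmol/L DTT, 60 min at room temperature. Reaction stopped with IBMX; residual cAMP measured by TR-FRET. Inhibition scaled between no-compound and no-enzyme controls.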

[4] = molecular target: T3, hPDE8B (Homo sapiens, UniProt O95263); assay: PDE8 inhibition assay (IC50), Experimental Example 3; details: for IC50: hPDE8B, read-out: PDE inhibition assay IC50, PDE8; for inhibition at 1 µM: read-out: inhibition rate (%) at prescribed concentration, PDE8
T3 construct: purchased SB Drug Discovery
Experimental: as §1, §2, §3, §4, §5

[5] = read-out: inhibition rate (%) at prescribed concentration, PDE4
[6] = read-out: inhibition rate (%) at prescribed concentration, PDE10

T3 sequence (O95263 whole entry): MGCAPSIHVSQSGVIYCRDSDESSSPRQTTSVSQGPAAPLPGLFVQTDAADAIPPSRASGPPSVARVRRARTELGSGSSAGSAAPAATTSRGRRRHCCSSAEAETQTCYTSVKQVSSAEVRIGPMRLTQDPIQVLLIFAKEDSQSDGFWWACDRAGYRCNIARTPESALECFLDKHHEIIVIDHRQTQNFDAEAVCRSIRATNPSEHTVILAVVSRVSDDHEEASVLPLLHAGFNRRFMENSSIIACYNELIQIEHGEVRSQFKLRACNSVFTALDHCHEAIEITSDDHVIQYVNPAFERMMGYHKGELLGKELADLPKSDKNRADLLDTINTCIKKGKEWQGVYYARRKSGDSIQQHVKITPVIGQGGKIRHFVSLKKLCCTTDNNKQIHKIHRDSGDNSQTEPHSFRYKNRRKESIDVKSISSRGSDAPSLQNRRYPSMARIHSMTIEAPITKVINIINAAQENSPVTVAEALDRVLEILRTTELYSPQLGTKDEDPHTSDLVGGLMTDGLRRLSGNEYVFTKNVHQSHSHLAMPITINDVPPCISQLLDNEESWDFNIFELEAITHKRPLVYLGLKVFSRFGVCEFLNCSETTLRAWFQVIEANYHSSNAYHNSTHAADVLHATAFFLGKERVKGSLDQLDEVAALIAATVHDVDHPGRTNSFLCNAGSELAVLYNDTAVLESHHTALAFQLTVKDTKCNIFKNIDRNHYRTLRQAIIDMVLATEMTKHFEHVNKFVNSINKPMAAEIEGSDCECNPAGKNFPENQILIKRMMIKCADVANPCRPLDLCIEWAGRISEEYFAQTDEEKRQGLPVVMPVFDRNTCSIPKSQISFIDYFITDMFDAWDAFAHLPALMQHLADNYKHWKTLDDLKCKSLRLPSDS
T2 sequence (Q9NP56 whole entry): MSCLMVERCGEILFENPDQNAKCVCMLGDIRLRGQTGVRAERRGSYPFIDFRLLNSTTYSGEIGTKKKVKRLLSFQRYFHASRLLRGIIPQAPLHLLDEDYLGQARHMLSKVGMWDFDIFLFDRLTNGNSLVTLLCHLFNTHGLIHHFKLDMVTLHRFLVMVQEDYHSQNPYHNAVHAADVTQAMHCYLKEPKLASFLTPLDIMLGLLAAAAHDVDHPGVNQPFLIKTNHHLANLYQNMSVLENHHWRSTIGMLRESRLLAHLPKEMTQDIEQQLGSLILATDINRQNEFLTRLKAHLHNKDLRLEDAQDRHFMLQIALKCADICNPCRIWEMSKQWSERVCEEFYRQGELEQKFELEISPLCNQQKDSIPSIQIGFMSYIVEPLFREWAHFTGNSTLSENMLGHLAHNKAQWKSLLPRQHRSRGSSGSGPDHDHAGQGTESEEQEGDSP
Sequence of hPDE10A (Q9Y233 290-1055 limits assumed): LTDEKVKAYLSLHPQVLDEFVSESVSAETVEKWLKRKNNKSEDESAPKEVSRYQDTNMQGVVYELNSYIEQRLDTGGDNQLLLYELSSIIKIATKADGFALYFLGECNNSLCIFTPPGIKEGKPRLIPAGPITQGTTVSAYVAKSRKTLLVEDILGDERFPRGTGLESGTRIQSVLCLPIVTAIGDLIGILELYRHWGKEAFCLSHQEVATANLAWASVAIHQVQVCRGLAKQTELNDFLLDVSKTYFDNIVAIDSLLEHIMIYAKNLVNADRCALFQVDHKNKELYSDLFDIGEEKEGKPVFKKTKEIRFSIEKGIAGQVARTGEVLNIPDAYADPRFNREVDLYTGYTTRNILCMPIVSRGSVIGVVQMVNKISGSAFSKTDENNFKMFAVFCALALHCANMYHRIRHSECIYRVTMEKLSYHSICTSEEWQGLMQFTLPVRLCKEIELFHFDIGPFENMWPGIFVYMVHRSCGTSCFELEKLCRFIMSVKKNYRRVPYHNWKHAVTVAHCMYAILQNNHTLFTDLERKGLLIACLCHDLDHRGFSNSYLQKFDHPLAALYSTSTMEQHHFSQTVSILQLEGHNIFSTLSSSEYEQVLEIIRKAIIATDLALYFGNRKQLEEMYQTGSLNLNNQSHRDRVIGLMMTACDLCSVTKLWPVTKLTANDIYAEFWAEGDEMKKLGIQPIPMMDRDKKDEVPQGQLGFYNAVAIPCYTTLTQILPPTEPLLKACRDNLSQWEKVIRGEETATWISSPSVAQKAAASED
T1 sequence (Q08499 whole entry): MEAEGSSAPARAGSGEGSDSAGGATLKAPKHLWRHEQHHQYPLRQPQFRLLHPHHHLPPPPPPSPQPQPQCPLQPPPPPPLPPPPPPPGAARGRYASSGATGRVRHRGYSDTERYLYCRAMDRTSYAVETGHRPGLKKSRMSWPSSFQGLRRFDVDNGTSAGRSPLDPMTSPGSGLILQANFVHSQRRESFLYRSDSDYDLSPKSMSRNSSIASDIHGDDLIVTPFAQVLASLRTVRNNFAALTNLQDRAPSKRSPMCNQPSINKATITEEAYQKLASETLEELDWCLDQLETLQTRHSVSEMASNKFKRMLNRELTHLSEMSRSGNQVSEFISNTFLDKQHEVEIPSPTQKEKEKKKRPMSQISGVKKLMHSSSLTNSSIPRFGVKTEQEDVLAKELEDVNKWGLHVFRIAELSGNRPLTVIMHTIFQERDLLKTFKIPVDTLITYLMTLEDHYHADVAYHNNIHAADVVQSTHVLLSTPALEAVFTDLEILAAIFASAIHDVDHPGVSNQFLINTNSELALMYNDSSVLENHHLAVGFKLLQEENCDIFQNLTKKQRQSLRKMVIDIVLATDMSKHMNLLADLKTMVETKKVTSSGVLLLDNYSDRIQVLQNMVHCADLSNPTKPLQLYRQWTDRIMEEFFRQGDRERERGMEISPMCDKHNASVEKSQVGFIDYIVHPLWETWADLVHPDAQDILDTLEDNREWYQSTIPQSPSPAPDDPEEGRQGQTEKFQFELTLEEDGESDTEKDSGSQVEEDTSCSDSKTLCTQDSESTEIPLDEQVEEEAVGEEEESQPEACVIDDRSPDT

CC1CC(C)CN(c2nnc3c(N)nccn23)C1 (single isomer, unassigned) [Example 226, 3-[trans-3,5-dimethylpiperidin-1-yl][1,2,4]triazolo[4,3-a]pyrazin-8-amine]
IC50 [1]: 3.6 µM
IC50 [2]: 5.2 µM
IC50 [3]: 0.01 µM
IC50 [4]: 4.2 µM

CC1CCN(c2nnc3c(N)nccn23)CC1C (single isomer, unassigned) [Example 230, 3-(3,4-dimethylpiperidin-1-yl) [1,2,4]triazolo[4,3-a]pyrazin-8-amine]
IC50 [1]: 4 µM
IC50 [2]: 19.6 µM
IC50 [3]: 0.08 µM
IC50 [4]: 2.9 µM

CC1CCN(c2nnc3c(N)nccn23)CC1C (single isomer, unassigned) [Example 231, 3-(3,4-dimethylpiperidin-1-yl) [1,2,4]triazolo[4,3-a]pyrazin-8-amine]
IC50 [1]: 3.6 µM
IC50 [2]: 4.8 µM
IC50 [3]: 0.01 µM
IC50 [4]: 2.1 µM

CC1CCC(C)N(c2nnc3c(N)nccn23)C1 (single isomer, unassigned) [Example 232, 3-(2,5-dimethylpiperidin-1-yl) [1,2,4]triazolo[4,3-a]pyrazin-8-amine]
IC50 [1]: 1.4 µM
IC50 [2]: 0.35 µM
IC50 [3]: 0.003 µM
IC50 [4]: 4.6 µM

CC1CCC(C)N(c2nnc3c(N)ncc(C#N)n23)C1 (single isomer, unassigned) [Example 234, 8-amino-3-(2,5-dimethylpiperidin-1-yl) [1,2,4]triazolo[4,3-a]pyrazine-5-carbonitrile]
IC50 [1]: 6.3 µM
IC50 [2]: 3.2 µM
IC50 [3]: 0.00015 µM
IC50 [4]: 2.7 µM

CC1CCC(C)(C)CN1c1nnc2c(N)nccn12 (single isomer, unassigned) [Example 236, 3-(2,5,5-trimethylpiperidin-1-yl) [1,2,4]triazolo[4,3-a]pyrazin-8-amine]
IC50 [1]: 0.036 µM
IC50 [2]: 0.16 µM
IC50 [3]: 0.033 µM
IC50 [4]: 0.86 µM

CC1CCCCC1c1nnc2c(N)ncnn12 (single isomer, unassigned) [Example 238, 3-(cis-2-methylcyclohexyl) [1,2,4]triazolo[3,4-f][1,2,4]triazin-8-amine]
inhibition at 1 µM [1, 5]: 63%
IC50 [2]: 1.9 µM
IC50 [3]: < 0.01 µM
inhibition at 1 µM ([4]; at 1 μmol/L): 51%

CC1CCCC(c2nnc3c(N)ncnn23)C1 (single isomer, unassigned) [Example 240, 3-(cis-3-methylcyclohexyl) [1,2,4]triazolo[3,4-f][1,2,4]triazin-8-amine]
inhibition at 1 µM [1, 5]: 86%
IC50 [2]: 3.1 µM
IC50 [3]: < 0.01 µM
inhibition rate (%) at prescribed concentration, PDE8 ([4]; at 1 μmol/L): 95% at 1

CC1(C)CCCC(c2nnc3c(N)ncnn23)C1 (single isomer, unassigned) [Example 242, 3-(3,3-dimethylcyclohexyl) [1,2,4]triazolo[3,4-f][1,2,4]triazin-8-amine]
inhibition at 1 µM [1, 5]: 53%
IC50 [2]: 2.86 µM
IC50 [3]: < 0.01 µM
inhibition at 1 µM ([4]; at 1 μmol/L): 84%

Nc1ncnn2c(C3CCCC(C(F)(F)F)C3)nnc12 (single isomer, unassigned) [Example 244, 3-[cis-3-(trifluoromethyl)cyclohexyl][1,2,4]triazolo[3,4-f][1,2,4]triazin-8-amine]
IC50 [1]: 1.6 µM
IC50 [2]: 52.6 µM
IC50 [3]: < 0.01 µM
inhibition at 1 µM ([4]; at 1 μmol/L): 73%

CC1(C)CCCN(c2nnc3c(N)ncc(C#N)n23)C1 [Example 2, 8-amino-3-(3,3-dimethylpiperidin-1-yl) [1,2,4]triazolo[4,3-a]pyrazine-5-carbonitrile]
inhibition at 1 µM [1, 5]: 61%
IC50 [2]: 6.23 µM
IC50 [3]: 0.0007 µM
IC50 [4]: 1.62 µM

C[C@H]1CC[C@H](n2nnc3c(N)ncnc32)CC1 [Example 8, 3-(trans-4-methylcyclohexyl)-3H-[1,2,3]triazolo[4,5-d]pyrimidin-7-amine]
IC50 [1]: 2.13 µM
inhibition at 10 µM [2, 6]: 48%
IC50 [3]: 0.01 µM
IC50 [4]: 0.24 µM

Nc1nccn2c(C3CC4(CC4)C3)nnc12 [Example 20]
inhibition at 10 µM ([1]; at 10 μmol/L, read-out: inhibition rate (%) at prescribed concentration, PDE4): 40%
inhibition at 10 µM [2, 6]: 22%
IC50 [3]: 0.08 µM
IC50 [4]: 1.58 µM

C[C@@H]1CCCCN1c1nnc2c(N)nccn12 [Example 22, 3-(2-methylpiperidin-1-yl) [1,2,4]triazolo[4,3-a]pyrazin-8-amine]
IC50 [1]: 8.3 µM
IC50 [2]: 5.5 µM
IC50 [3]: 0.04 µM
IC50 [4]: 5.8 µM

CC1CCCN(c2nnc3c(N)nccn23)C1 (stereo not shown) [Example 24]
IC50 [1]: 6.3 µM
IC50 [2]: 12.9 µM
IC50 [3]: 0.07 µM
IC50 [4]: 1.6 µM

CC1(C)CCCN(c2nnc3c(N)nccn23)C1 [Example 26, 3-(3,3-dimethylpiperidin-1-yl) [1,2,4]triazolo[4,3-a]pyrazin-8-amine]
IC50 [1]: 4.59 µM
IC50 [2]: 21.1 µM
IC50 [3]: 0.02 µM
IC50 [4]: 7.66 µM

CC1CCN(c2nnc3c(N)nccn23)CC1 [Example 28]
IC50 [1]: 4.3 µM
IC50 [2]: 28.4 µM
IC50 [3]: 0.09 µM
IC50 [4]: 3.7 µM

Nc1nccn2c(N3CCCCCC3)nnc12 [Example 29]
IC50 [1]: 5.4 µM
IC50 [2]: 11.9 µM
IC50 [3]: 0.08 µM
IC50 [4]: 5.1 µM

CC(C)(C)OC(=O)N1CCCCC1c1nnc2c(N)nccn12 (stereo not shown) [Example 32, tert-butyl 2-(8-amino-[1,2,4]triazolo[4,3-a]pyrazin-3-yl)piperidine-1-carboxylate]
IC50 [1]: 5.78 µM
IC50 [2]: 22.6 µM
IC50 [3]: 0.08 µM
IC50 [4]: 2.27 µM

Nc1nccn2c(N3CCCCC34CC4)nnc12 [Example 38]
IC50 [1]: 5.21 µM
IC50 [2]: 25 µM
IC50 [3]: 0.08 µM
IC50 [4]: 2.74 µM

CCc1cnc(N)c2nnc(N3CCCC(C)(C)C3)n12 [Example 42, 3-(3,3-dimethylpiperidin-1-yl)-5-ethyl[1,2,4]triazolo[4,3-a]pyrazin-8-amine]
IC50 [1]: 3 µM
IC50 [2]: 5.2 µM
IC50 [3]: < 0.01 µM
IC50 [4]: 1.7 µM

CC1(C)CCCN(c2nnc3c(N)ncc(C4CC4)n23)C1 [Example 43, 5-cyclopropyl-3-(3,3-dimethylpiperidin-1-yl) [1,2,4]triazolo[4,3-a]pyrazin-8-amine]
IC50 [1]: 2.19 µM
IC50 [2]: 2.33 µM
IC50 [3]: 0.03 µM
IC50 [4]: 1.52 µM

Nc1nccn2c(N3CCCC4(CC4)C3)nnc12 [Example 44]
IC50 [1]: 7.85 µM
IC50 [2]: 24.1 µM
IC50 [3]: 0.08 µM
IC50 [4]: 5.51 µM

Nc1nccn2c(N3CCCC(C(F)(F)F)C3)nnc12 (stereo not shown) [Example 46]
IC50 [1]: 56.9 µM
IC50 [2]: 34.5 µM
IC50 [3]: 0.08 µM
IC50 [4]: 7.7 µM

Nc1nccn2c(N3CCCC(Cc4ccccc4)C3)nnc12 (stereo not shown) [Example 48]
IC50 [1]: 1.3 µM
inhibition at 1 µM ([2]; at 1 μmol/L, read-out: inhibition rate (%) at prescribed concentration, PDE10): 52%
IC50 [3]: 0.07 µM
inhibition at 1 µM ([4]; at 1 μmol/L): 79%

C[C@@H]1C[C@H](C)CN(c2nnc3c(N)nccn23)C1 [Example 52]
IC50 [1]: 8.19 µM
IC50 [2]: 6.8 µM
IC50 [3]: 0.08 µM
IC50 [4]: 1.16 µM

Nc1nccn2c(N3C4CCCC3CC4)nnc12 [Example 67]
IC50 [1]: 21 µM
IC50 [2]: 31.8 µM
IC50 [3]: 0.09 µM
IC50 [4]: 15 µM

Nc1ncnn2c(C3CCCCC3)nnc12 [Example 68, 3-cyclohexyl[1,2,4]triazolo[3,4-f][1,2,4]triazin-8-amine]
IC50 [1]: 4.13 µM
inhibition at 10 µM [2, 6]: 34%
IC50 [3]: 0.02 µM
IC50 [4]: 0.5 µM
